Assay results published in US7795261B2, “Substituted 1-piperidin-4-yl-4-pyrrolidin-3-yl-piperazine derivatives and their use as neurokinin antagonists” (Janssen Pharmaceutica NV, priority 2002, dated 2010).

How the values were obtained:
Format in all cases: cell-based
NK1 = NK1 (Homo sapiens, UniProt P25103); experiment: Signal transduction (ST), intracellular Ca++ (FLIPR), NK1 antagonistic activity; details: read-out: pIC50 NK1 (converted)
Summary of the method: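 Confluent cells loaded with 2 μM Fluo3 (1 h, 37 °C, probenecid), preincubated 20 min at RT with antagonist concentration range, then agonist added. Peak Ca++ transient read by FLIPR in Krebs buffer pH 7.4; IC50 by non-linear regression.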

NK2 = target: T1, NK2 (Homo sapiens, UniProt P21452); experiment: Signal transduction (ST), intracellular Ca++ (FLIPR), NK2; details: read-out: pIC50 NK2 (converted)
T1 sequence (P21452 1-398): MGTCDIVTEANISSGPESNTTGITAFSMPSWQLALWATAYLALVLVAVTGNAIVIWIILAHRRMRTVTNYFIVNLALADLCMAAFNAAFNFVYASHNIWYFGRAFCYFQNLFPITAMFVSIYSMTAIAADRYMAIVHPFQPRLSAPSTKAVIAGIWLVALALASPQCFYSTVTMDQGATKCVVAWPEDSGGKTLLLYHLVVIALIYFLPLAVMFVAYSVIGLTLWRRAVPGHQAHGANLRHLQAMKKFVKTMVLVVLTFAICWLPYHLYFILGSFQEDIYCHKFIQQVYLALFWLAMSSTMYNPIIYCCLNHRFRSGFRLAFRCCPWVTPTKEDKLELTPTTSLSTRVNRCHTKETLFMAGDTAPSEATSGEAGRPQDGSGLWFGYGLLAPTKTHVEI

NK3 = target: T2, NK3 (Homo sapiens, UniProt P29371); experiment: Signal transduction (ST), intracellular Ca++ (FLIPR), NK3; details: read-out: pIC50 NK3 (converted)
T2 sequence (P29371 1-465): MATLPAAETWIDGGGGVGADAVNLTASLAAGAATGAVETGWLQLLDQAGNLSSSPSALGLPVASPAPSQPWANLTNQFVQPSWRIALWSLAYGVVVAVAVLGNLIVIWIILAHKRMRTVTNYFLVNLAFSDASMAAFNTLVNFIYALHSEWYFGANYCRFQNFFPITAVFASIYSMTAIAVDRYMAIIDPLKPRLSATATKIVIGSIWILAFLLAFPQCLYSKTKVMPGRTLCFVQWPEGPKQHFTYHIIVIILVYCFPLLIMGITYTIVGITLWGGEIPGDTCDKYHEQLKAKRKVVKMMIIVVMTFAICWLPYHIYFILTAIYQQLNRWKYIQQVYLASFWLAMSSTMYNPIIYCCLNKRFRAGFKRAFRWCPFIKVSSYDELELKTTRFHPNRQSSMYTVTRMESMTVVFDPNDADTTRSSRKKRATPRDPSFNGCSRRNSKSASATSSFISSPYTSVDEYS

Sequence of NK1 (P25103 whole entry): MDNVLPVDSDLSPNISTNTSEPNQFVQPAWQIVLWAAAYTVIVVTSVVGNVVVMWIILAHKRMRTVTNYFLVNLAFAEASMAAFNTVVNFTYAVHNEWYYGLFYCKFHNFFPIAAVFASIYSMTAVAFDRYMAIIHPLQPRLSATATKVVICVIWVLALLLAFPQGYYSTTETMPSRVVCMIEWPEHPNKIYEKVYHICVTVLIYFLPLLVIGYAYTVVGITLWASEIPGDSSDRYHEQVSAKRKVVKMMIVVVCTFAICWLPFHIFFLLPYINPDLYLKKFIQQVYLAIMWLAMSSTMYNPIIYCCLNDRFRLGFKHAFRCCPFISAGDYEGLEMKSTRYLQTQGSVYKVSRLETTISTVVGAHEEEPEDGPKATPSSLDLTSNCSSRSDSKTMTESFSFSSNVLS

| Compound | IC50 (NK1) | IC50 (NK2) | IC50 (NK3) |
| --- | --- | --- | --- |
| O=C(c1cccs1)N1CC[C@H](N2CCN([C@H]3CCN(C(=O)c4cc(C(F)(F)F)cc(C(F)(F)F)c4)[C@H](Cc4ccccc4)C3)CC2)C1 [Compound 322] | 7.94 nM | 3980 nM | 631 nM |
| O=C(c1cnccn1)N1CC[C@H](N2CCN([C@H]3CCN(C(=O)c4cc(C(F)(F)F)cc(C(F)(F)F)c4)[C@H](Cc4ccc(Cl)c(Cl)c4)C3)CC2)C1 [Compound 323] | 10 nM | 1260 nM | 316 nM |
| O=C(c1cc(C(F)(F)F)cc(C(F)(F)F)c1)N1CC[C@H](N2CCN([C@H]3CCN(C(=O)n4ccnc4)C3)CC2)C[C@H]1Cc1ccc(Cl)c(Cl)c1 [Compound 324] | 6.31 nM | 200 nM | 398 nM |
| O=C(c1ccsc1)N1CC[C@H](N2CCN([C@H]3CCN(C(=O)c4cc(C(F)(F)F)cc(C(F)(F)F)c4)[C@H](Cc4ccc(Cl)c(Cl)c4)C3)CC2)C1 [Compound 325] | 15.8 nM | 398 nM | 631 nM |
| O=C(c1ccoc1)N1CC[C@H](N2CCN([C@H]3CCN(C(=O)c4cc(C(F)(F)F)cc(C(F)(F)F)c4)[C@H](Cc4ccc(Cl)c(Cl)c4)C3)CC2)C1 [Compound 326] | 15.8 nM | 501 nM | 501 nM |
| O=C(c1ccccc1O)N1CCC(N2CCN([C@H]3CCN(C(=O)c4cc(C(F)(F)F)cc(C(F)(F)F)c4)[C@H](Cc4ccccc4)C3)CC2)C1 (stereo partly drawn) [Compound 327] | 6.31 nM | 3980 nM | 2000 nM |
| COc1ccc(S(=O)(=O)N2CCC(N3CCN([C@H]4CCN(C(=O)c5cc(C(F)(F)F)cc(C(F)(F)F)c5)[C@H](Cc5ccccc5)C4)CC3)C2)s1 (stereo partly drawn) [Compound 328] | 6.31 nM | 631 nM | 6310 nM |
| O=C(c1cccc(O)c1)N1CCC(N2CCN([C@H]3CCN(C(=O)c4cc(C(F)(F)F)cc(C(F)(F)F)c4)[C@H](Cc4ccccc4)C3)CC2)C1 (stereo partly drawn) [Compound 332] | 5.01 nM | 1580 nM | 3160 nM |
| O=C(C(O)c1ccccc1Cl)N1CCC(N2CCN([C@H]3CCN(C(=O)c4cc(C(F)(F)F)cc(C(F)(F)F)c4)[C@H](Cc4ccccc4)C3)CC2)C1 (stereo partly drawn) [Compound 334] | 31.6 nM | 5010 nM | 7940 nM |
| O=C(c1ccsc1)N1CCC(N2CCN(C3CCN(C(=O)c4cc(C(F)(F)F)cc(C(F)(F)F)c4)C(Cc4cc(F)cc(F)c4)C3)CC2)C1 (stereo not drawn) [Compound 337] | 39.8 nM | 3160 nM | 1260 nM |
| O=C(C1CC1)N1CCC(N2CCN(C3CCN(C(=O)c4cc(C(F)(F)F)cc(C(F)(F)F)c4)C(Cc4cc(F)cc(F)c4)C3)CC2)C1 (stereo not drawn) [Compound 340] | 50.1 nM | 6310 nM | 6310 nM |
| O=C(c1ccc(O)cc1)N1CCC(N2CCN([C@H]3CCN(C(=O)c4cc(C(F)(F)F)cc(C(F)(F)F)c4)[C@H](Cc4ccccc4)C3)CC2)C1 (stereo partly drawn) [Compound 341] | 10 nM | 2000 nM | 3160 nM |
| O=C(c1cc(C(F)(F)F)cc(C(F)(F)F)c1)N1CCC(N2CCN(C3CCN(S(=O)(=O)c4cc(CCO)cs4)C3)CC2)CC1Cc1ccccc1 (stereo not drawn) [Compound 342] | 5.01 nM | 126 nM | 398 nM |
| COc1cccc(NC(=O)N2CCC(N3CCN(C4CCN(C(=O)c5cc(C(F)(F)F)cc(C(F)(F)F)c5)C(Cc5ccccc5)C4)CC3)C2)c1 (stereo not drawn) [Compound 343] | 31.6 nM | 3160 nM | 7940 nM |
| O=C(OCc1ccccc1C(=O)N1CCC(N2CCN([C@H]3CCN(C(=O)c4cc(C(F)(F)F)cc(C(F)(F)F)c4)[C@H](Cc4ccccc4)C3)CC2)C1)c1ccccc1 (stereo partly drawn) [Compound 346] | 63.1 nM | 1580 nM | 1260 nM |
| COc1cccc(S(=O)(=O)N2CCC(N3CCN([C@H]4CCN(C(=O)c5cc(C(F)(F)F)cc(C(F)(F)F)c5)[C@H](Cc5ccccc5)C4)CC3)C2)c1 (stereo partly drawn) [Compound 347] | 20 nM | 631 nM | 2510 nM |
| O=C(c1cc(C(F)(F)F)cc(C(F)(F)F)c1)N1CC[C@H](N2CCN(C3CCN(S(=O)(=O)c4cccc(O)c4)C3)CC2)C[C@H]1Cc1ccccc1 (stereo partly drawn) [Compound 348] | 10 nM | 316 nM | 2000 nM |
| O=C(c1cc(C(F)(F)F)cc(C(F)(F)F)c1)N1CCC(N2CCN(C3CCN(C(CO)c4ccsc4)C3)CC2)CC1Cc1ccccc1 (stereo not drawn) [Compound 349] | 31.6 nM | 2510 nM | 6310 nM |

| Compound | IC50 (NK1) | IC50 (NK2) | IC50 (NK3) |
| --- | --- | --- | --- |
| COc1ccc(C(=O)N2CCC(N3CCN([C@H]4CCN(C(=O)c5cc(C(F)(F)F)cc(C(F)(F)F)c5)[C@H](Cc5ccccc5)C4)CC3)C2)s1 (stereo partly drawn) [Compound 350] | 12.6 nM | 5010 nM | 5010 nM |
| O=C(c1cc(C(F)(F)F)cc(C(F)(F)F)c1)N1CC[C@H](N2CCN(C3CCN(S(=O)(=O)c4ccc(CCO)s4)C3)CC2)C[C@H]1Cc1ccccc1 (stereo partly drawn) [Compound 351] | 10 nM | 251 nM | 1000 nM |
| O=C(c1cc(COCc2ccccc2)cs1)N1CCC(N2CCN([C@H]3CCN(C(=O)c4cc(C(F)(F)F)cc(C(F)(F)F)c4)[C@H](Cc4ccccc4)C3)CC2)C1 (stereo partly drawn) [Compound 352] | 63.1 nM | 6310 nM | 3160 nM |
| O=C(c1sccc1COCc1ccccc1)N1CCC(N2CCN([C@H]3CCN(C(=O)c4cc(C(F)(F)F)cc(C(F)(F)F)c4)[C@H](Cc4ccccc4)C3)CC2)C1 (stereo partly drawn) [Compound 353] | 25.1 nM | 3160 nM | 794 nM |
| COc1ccc(NC(=NC#N)N2CCC(N3CCN([C@H]4CCN(C(=O)c5cc(C(F)(F)F)cc(C(F)(F)F)c5)[C@H](Cc5ccccc5)C4)CC3)C2)cc1 (stereo partly drawn) [Compound 355] | 15.8 nM | 5010 nM | 6310 nM |
| O=C(C1CCCCC1)N1CCC(N2CCN(C3CCN(C(=O)c4cc(C(F)(F)F)cc(C(F)(F)F)c4)C(Cc4ccc(F)c(F)c4)C3)CC2)C1 (stereo not drawn) [Compound 358] | 12.6 nM | 3160 nM | 1580 nM |
| O=C(c1ccc(CCO)s1)N1CCC(N2CCN(C3CCN(C(=O)c4cc(C(F)(F)F)cc(C(F)(F)F)c4)C(Cc4ccccc4)C3)CC2)C1 (stereo not drawn) [Compound 359] | 12.6 nM | 2510 nM | 2000 nM |
| O=C(c1sccc1CO)N1CCC(N2CCN([C@H]3CCN(C(=O)c4cc(C(F)(F)F)cc(C(F)(F)F)c4)[C@H](Cc4ccccc4)C3)CC2)C1 (stereo partly drawn) [Compound 360] | 10 nM | 3980 nM | 1000 nM |
| O=C(c1sccc1CCOCc1ccccc1)N1CCC(N2CCN([C@H]3CCN(C(=O)c4cc(C(F)(F)F)cc(C(F)(F)F)c4)[C@H](Cc4ccccc4)C3)CC2)C1 (stereo partly drawn) [Compound 361] | 79.4 nM | 1000 nM | 631 nM |
| O=C(c1cc(CCOCc2ccccc2)cs1)N1CCC(N2CCN([C@H]3CCN(C(=O)c4cc(C(F)(F)F)cc(C(F)(F)F)c4)[C@H](Cc4ccccc4)C3)CC2)C1 (stereo partly drawn) [Compound 362] | 126 nM | 2510 nM | 2510 nM |
| O=C(c1cc(CCO)cs1)N1CCC(N2CCN([C@H]3CCN(C(=O)c4cc(C(F)(F)F)cc(C(F)(F)F)c4)[C@H](Cc4ccccc4)C3)CC2)C1 (stereo partly drawn) [Compound 363] | 12.6 nM | 3980 nM | 1580 nM |
| O=C(c1sccc1CCO)N1CCC(N2CCN([C@H]3CCN(C(=O)c4cc(C(F)(F)F)cc(C(F)(F)F)c4)[C@H](Cc4ccccc4)C3)CC2)C1 (stereo partly drawn) [Compound 369] | 12.6 nM | 3980 nM | 631 nM |
| CC1(C)OCC(CNC(=NC#N)N2CCC(N3CCN(C4CCN(C(=O)c5cc(C(F)(F)F)cc(C(F)(F)F)c5)C(Cc5ccccc5)C4)CC3)C2)O1 (stereo not drawn) [Compound 370] | 20 nM | 6310 nM | 7940 nM |
| N#CN=C(N1CCOCC1)N1CCC(N2CCN([C@H]3CCN(C(=O)c4cc(C(F)(F)F)cc(C(F)(F)F)c4)[C@H](Cc4ccccc4)C3)CC2)C1 (stereo partly drawn) [Compound 371] | 15.8 nM | 7940 nM | 5010 nM |
| COc1ccc(S(=O)(=O)N2CCC(N3CCN([C@H]4CCN(C(=O)c5cc(C(F)(F)F)cc(C(F)(F)F)c5)[C@H](Cc5ccccc5)C4)CC3)C2)cc1OC (stereo partly drawn) [Compound 378] | 12.6 nM | 1580 nM | 2000 nM |
| O=C(c1cc(C(F)(F)F)cc(C(F)(F)F)c1)N1CC[C@H](N2CCN(C3CCN(S(=O)(=O)c4ccccc4COCc4ccccc4)C3)CC2)C[C@H]1Cc1ccccc1 (stereo partly drawn) [Compound 401] | 251 nM | 3160 nM | 1260 nM |
| CC1(C)OC(=O)C[C@H]1C(=O)N1CCC(N2CCN([C@H]3CCN(C(=O)c4cc(C(F)(F)F)cc(C(F)(F)F)c4)[C@H](Cc4ccccc4)C3)CC2)C1 (stereo partly drawn) [Compound 404] | 6.31 nM | 5010 nM | 79.4 nM |
